Reference: patent US20160038474A1, “COMPOSITIONS AND METHODS FOR THE MODULATION OF HEMOGLOBIN (S)” (GLOBAL BLOOD THERAPEUTICS, INC., priority 2013, published 2016)
Where two headings read alike, the source gives them in different places.

Assays:
[1] = Mouse intravenous pharmacokinetics and blood/plasma partitioning; format: in vivo; settings: mice; for blood plasma ratio: whole blood and plasma, iv
Excerpt: The ability of compound 12 to partition preferentially in red blood cells has also been confirmed in mice treated intravenously. […] Analogous to the measurements in rats, the volume of distribution (Vss) was low in mice (0.10). Thus, compound 12 is not expected to broadly distribute into extravascular space in mice.

[2] = biological target: T1, whole blood from homozygous sickle cell patients, Hb(S) (Homo sapiens, UniProt P68871+P69905, E7V); experiment: Reverse Hemox assay (oxygen equilibrium curves), whole blood; format: cell-based; settings: for Whole Blood OEC (delta p50%): [Hb] 1 mM
T1 construct: Oxygen Equilibrium Curves (OEC) of whole blood before and after treatment; from tissue; host or cells: whole blood (or washed red blood cells) of homozygous sickle cell patients
Experimental: Oxygen Equilibrium Curves (OEC) of whole blood before and after treatment with different concentrations of compounds 12, 22 and 23 were performed as follows using a HEMOX analyzer (TCS Scientific, New Hope, Pa.). Blood samples from homozygous sickle cell patients were obtained though the Hemoglobinopathy Center at Children's Hospital Oakland Research Institute (CHORI) with Institutional Review Board approval. The hematocrit was adjusted to 20% using autologous plasma and the blood samples were incubated for 1 hour at 37° C. in absence or presence of compounds. 100 μl of these samples were added to 5 mL of Hemox butter (30 mM TES, 130 mM NaCl, 5 mM KCl, pH=7.4) at 37° C. and then transferred to the Hemox sample chamber. The samples were saturated with oxygen by flushing with compressed air for 10 minutes. The samples were then flushed with pure nitrogen and the respective absorbances of oxy- and deoxy-Hb are recorded as a function of the solution pO2. The oxygen equilibrium data were then fitted to the Hill Model to obtain values for p50. The deoxygenation curves for both whole blood alone (control) and whole blood in the presence of the compound were collected with the TCS software.
Results: Table 3 below lists the delta p50% values where “+” indicates a delta p50% of between 0 and 29, “++” indicates a delta p50% of between 30 and 50, and “+++” indicates a delta p50% of 50 or greater.
Reverse hemox assay was performed essentially as described in Example 2, above, using either washed red blood cells or whole blood.

purified HbS = biological target: T2, purified HbS (Homo sapiens, UniProt P68871+P69905, E7V); experiment: HbS polymerization assay; format: biochemical; settings: for Polymerization DTcmpd-DTHbS: [HbS] 50 μM
T2 construct: HbS is purified by the CRO VIRUSYS, from blood obtained from homozygous sickle cell patients; tissue VIRUSYS (CRO that did the purification); host or cells: blood of homozygous sickle cell patients
Experimental: Polymerization assays are carried out in vitro using purified HbS exchanged into 1.8 M potassium phosphate buffer at pH 7.4. Using a slightly modified protocol (Antonini and Brunori, 1971). HbS is purified by the CRO VIRUSYS, from blood obtained from homozygous sickle cell patients through the Hemoglobinopathy Center at Children's Hospital Oakland Research Institute (CHORI) with Institutional Review Board approval. Compounds are prepared in 100% DMSO and a desired amount is added to 50 μM of purified HbS at a final DMSO concentration of 0.3%. Final potassium phosphate concentration is adjusted to 1.8 M using a combination of 2.5 M potassium phosphate stock solution and water at pH 7.4. The reaction mixture is incubated for an hour at 37° C. and then transferred into a 24-well plate for deoxygenation in a glove box containing 99.5% nitrogen and 0.5% oxygen. The 24-well plate is not covered and incubated at 4° C. on a plate cooler inside the glove box for one and a half hours. Fifty μl of the reaction mixture is transferred into a 96-well plate and the absorbance at 700 nm is measured every minute for one hour at 37° C. in a plate reader located inside the glove box. A plot of the absorbance against time is fitted using a Boltzman sigmoidal fit and the delay time (from zero to time at half Vmax) is measured. To compare and rank compounds, delay times are expressed as percent delay (% DT), which is defined as the difference in delay times for HbS/compound and HbS alone multiplied by 100 and divided by the delay time for HbS alone.
The ability of 5-HMF and compound 12 to delay HbS polymerization was evaluated as described in Example 2, above. Purified HbS (50 μM) was pre-incubated with 25 μM, 50 μM, or 100 μM of 5-HMF or compound 12, then passively de-oxygenated at 4° C. in 1.8 M potassium phosphate. Polymerization was induced via temperature jump from 4° C. to 37° C. Polymerization was quantified based on turbidity of the HbS solution under continued hypoxia.

HbS [3] = biological target: T3, HbS (Homo sapiens, UniProt P68871+P69905, E7V); experiment: 96-well oxygen dissociation assay (ODA); format: biochemical
Excerpt: Results: Table 4 below lists the change in oxygen affinity (Δoxy state). After two hours of passive deoxygenation, compound 12, at an equimolar concentration to Hb, increased the Hb oxygen affinity by 6-fold.

purified Hb = purified Hb (Homo sapiens, UniProt P68871+P69905); experiment: TCS Hemox analyzer with purified Hb; format: biochemical; settings: purified Hb 25 μM
Experimental: The agents were then assayed in a TCS Hemox analyzer using purified Hb at 25 μM.

[4] = system: sickle cell disease patient whole blood (ssRBCs); experiment: Viscosity assay, hypoxic sickle cell blood; format: cell-based, human; settings: for Viscosity (ΔcP): [Hb] 1.5 mM, two hours of hypoxia
Experimental: Sickle cell disease patients develop anemia as a means for the circulatory system to compensate for increase in blood viscosity caused by the non-deformable sickle cell red blood cells (ssRBCs). The effects of 5-HMF, compound 5, compound 9, or compound 12 were tested on sickle cell disease patient blood rheology to determine if these compounds decrease the viscosity of ssRBCs that have undergone hypoxia. Using blood from patients with sickle cell disease, whole blood (30% hematocrit, ˜1.5 mM Hb) was incubated with 5-HMF, compound 5, compound 9, or compound 12 during exposure to two hours of hypoxia (2.4% 02). A cone-plate viscometer was used to measure the viscosity at shear rates ranging from 60 s^−1 to 415 s^−1.

HbS [5] = biological target: T3, HbS; experiment: 96-well oxygen dissociation assay (ODA); format: biochemical; remark: listed apart in the source
[6] = ratio of compound 12 to Hb of 1:3

Vd ([1]; in vivo, read-out: volume of distribution (Vss)): 0.1 L/kg
blood plasma ratio ([1]; read-out: ratio of blood/plasma at overall exposure): 30
blood plasma ratio ([1]; read-out: ratio of blood/plasma at peak in vivo concentration): 15.4
Reverse Hemox delta p50% (class) ([2]; 1 mM compound, whole blood, hematocrit 20%): +++ (a delta p50% of 50 or greater)
Reverse Hemox delta p50% ([2]; 1 mM compound, whole blood, hematocrit 20%, 1 hour 37° C.): 79.83%
Whole Blood OEC (delta p50%) ([2]; [cmp] 1 mM): 80%
Whole Blood OEC (delta p50%) ([2]; [cmp] 3 mM): >80%
p50 ([2]; whole blood from sickle cell disease patients, control blood p50 30 mm Hg): 6 mm Hg
Polymerization % DT (class) (purified HbS; 75 μM compound, 50 μM HbS): †† (activity >80% but ≦120%)
Polymerization % DT (percent delay) (purified HbS; 75 μM compound, 50 μM HbS): 108.56%
Polymerization DTcmpd-DTHbS (purified HbS; [Cmpd] 25 μM): 3.9 min
Polymerization DTcmpd-DTHbS (purified HbS; [Cmpd] 50 μM): 12.8 min
Polymerization DTcmpd-DTHbS (purified HbS; [Cmpd] 100 μM): 22.9 min
Hb in ODA (Δoxy state) (HbS [3]; [Hb] 3 μM, [cmp] 3 μM): 56
increase of Hb oxygen affinity (HbS [3]; equimolar concentration to Hb, after two hours of passive deoxygenation): 6 fold
improvement of oxygen affinity versus Hb control (purified Hb; compound:Hb ratio of 1:3): 15%
improvement of oxygen affinity versus Hb control (purified Hb; stoichiometric concentrations): greater than 70%
Hb in ODA (Δoxy state) (HbS [5]; [Hb] 3 μM, [cmp] 1 μM): 16
improvement in oxygen affinity for Hb (HbS [5]; [6]): two-fold
more oxygenated Hb present (HbS [5]; [6]): 16%
Compound: CC(C)n1nccc1-c1ncccc1COc1cccc(O)c1C=O [Compound 12, 2-hydroxy-6-[[2-(2-propan-2-ylpyrazol-3-yl)pyridin-3-yl]methoxy] benzaldehyde]
HbS polymerization delay (in words) (purified HbS; HbS 50 μM, 25, 50 or 100 μM compound): delayed HbS polymerization in a dose-dependent manner
potency at increasing the oxygen affinity of HbS compared with 5-HMF (HbS [3]; 96-well ODA): more potent at increasing the oxygen affinity of HbS than 5-hydroxy furfural
Viscosity (ΔcP) ([4]; [cmp] 1.6 mM): 2.0 cP
Viscosity (ΔcP) ([4]; [cmp] 8 mM): >2.4 cP
blood viscosity ([4]; equimolar compound, hypoxia, 6.33 cP without compound): 4.32 cP
